In a melting point compilation (Tetko et al.; mined from patent text by program, amines drawn as free bases though some values may be those of a salt):

melting point [°C]	SMILES
208 to 209	Cc1cc(-c2nnc3c4ccccc4c(OCc4cn(C)cn4)nn23)no1
236 to 238	O=C(O)c1cccc(S(=O)(=O)Cc2c(O[C@H](Cn3ccnc3)c3ccccc3)ccc3c2CCCC3=O)c1
124 to 125	CCCN1C(=O)COc2ccc(N3C(=O)C(C)=C(C)C3O)cc21 (stereo unspecified)
100 to 101	Cc1cc(CCl)nc(Nc2ccccc2)n1
184 to 186	CC(=O)Nc1cccc(OCCCN2CCC(c3noc4cc(F)ccc34)CC2)c1
206 to 207	CC(=O)OCc1coc(-c2cccc(C3=Nc4ccc(-n5cccc5)cc4NC(=O)C3)c2)n1
133 to 134	Cc1c(NC(=O)c2ccc(OC[C@@H]3CCCO3)cc2F)ccc2cc(CNCC(C)C)cnc12
215 to 217	CNc1nc(-c2ccccc2)c(-c2nc3ccccc3c(=O)n2-c2ccccc2Cl)s1
111 to 113	COc1nc2ccccc2cc1NC(=O)N1CCN(c2cccc(OC(C)C)c2)CC1
160	CC(Cc1cc(-c2ccccc2)nc2ccccc12)C(=O)N(C)C1CCCCC1 (stereo unspecified)
273 to 274	CC(C)(C)CC(=O)Nc1ccc2ncnc(N)c2c1
48 to 50	CCOC(=O)CCc1cc(C(=O)c2cccc(C(=O)OCC)c2)ccc1/C=C\CCCCO
224 to 225	COc1ccc(N2CCC(c3cnc(N)nc3N)CC2)cc1
193 to 194	COCCc1nc2c(N)nc3ccccc3c2n1CCCNS(C)(=O)=O
63 to 67	CCCc1nc(C(=O)CC)c(C)[nH]1
182 to 183	O=C(O)c1c(Sc2ccccc2)c2ccccc2n1-c1ccc2c(c1)OCO2
132 to 134	COc1ccc(C)cc1NC(=O)Nc1ccc(N2CCN(C(=O)Nc3cc(OCCO)ccc3Cl)CC2)nc1
244 to 246	COc1cc2ccc3c4cc(OCc5ccccc5)c(OC)cc4nnc3c2cc1OC
149 to 150	OCc1ccccc1NCc1cc2c(cc1O)CCO2
173 to 175	CCC(=O)N1c2ccccc2CC1C(=O)O (stereo unspecified)
115 to 116	CCCn1nnc(-c2cnc3ccccn3c2=O)n1

melting point [°C]	SMILES
192	CCN(CC)C(=O)Nc1ccc(S(=O)(=O)N2C(=O)C(NCCCC(N)=O)(c3ccccc3Cl)c3cc(Cl)ccc32)cc1 (stereo unspecified)
97.5 to 101	Cn1cc(C2=C(c3cccc(NC(O)CCO)c3)C(=O)NC2=O)c2ccccc21 (racemic)
218 to 219	CC(C)Cn1c(CONC(=O)NC(C)C)nc2c(N)nc3ccccc3c21
72 to 73	CCCCCCCCCCOc1cnc(-c2ccc(CCCCCC(C)OC(C)=O)cc2)nc1 (stereo unspecified)
220	O=C(N[C@H]1CC[C@H](CCN2CCC(c3cccc4c3CCO4)CC2)CC1)c1ccccc1
170	O=c1ccc(-c2c(-c3ccccc3)nn3ccccc23)nn1-c1ccccc1
106 to 107	COc1cc(COc2cc(CO)n(-c3ccccc3)n2)ccc1OCc1nc(-c2ccco2)oc1C
104 to 106	CCCP(=O)(CCC)Cc1ccc(N)cc1
245 to 247	CC(C)(C)C1c2ccccc2-c2cc(Br)ccc2N1S(=O)(=O)c1ccc(O)cc1 (stereo unspecified)
228 to 230	Cc1cc(NC(=O)CCC(=O)O)ccc1-n1c(C)nc2ccccc2c1=O
100	COC(=O)C1Oc2ccc(C)cc2C(C)(c2ccccc2)O1 (stereo unspecified)
110 to 111	CN(C)CCCn1c(-c2ccc(Br)cc2)csc1=Nc1ccccc1
102 to 103	CCCCN(C(=O)CCc1ccc(OCCOC)cc1Oc1ncc(C(F)(F)F)cc1Cl)S(N)(=O)=O
169 to 171	CS(=O)(=O)c1ccc(-c2[nH]nc(C(=O)CCCO)c2-c2ccc(C#N)cc2)cc1
159 to 160	CCCc1nc2c(N)nc(C)c(C)c2n1CCCCN(O)C(=O)Nc1ccccc1
171 to 175	COc1cc(OC)nc(NC(=O)NS(=O)(=O)c2ccccc2Cc2nnc(SC)s2)n1
133 to 134	O=C(O)c1cccnc1NCCSCc1nccs1
100 to 101	CCc1nc(-c2ccc(OCCCn3cnc4ccccc43)cc2)no1
208 to 209	CC(=O)c1c(-c2ccncc2)[nH]c(-c2ccccc2)c1C
172	COCCn1nc(-c2sc(C(=O)NC(C)C)nc2-c2ccccc2)ccc1=O

Further lines, the molecule ahead of its results:

SMILES	melting point [°C]
COc1cc(C=Cc2ccc(=O)[nH]n2)cc(OC)c1OC	194 to 196
CCC(=S)OC1(C(=O)COC(=O)C(C)C)CCC2C3CC(C)C4=CC(=O)C=CC4(C)C3C(O)CC21C (stereo unspecified)	151 to 152
Oc1ccc(-c2c(Cl)c3cc(O)ccc3n2Cc2ccc(OCCN3CCCC3)cc2)cc1	233 to 235
CCCCC[C@H]1CC[C@H](CCc2ccc(O)cc2)CC1	102
CON(C)C(=O)c1cc2n(n1)CCC2	45 to 50
OC1(F)OC(F)(F)C1(F)F (stereo unspecified)	90 to 91
Oc1ccc(C=C(Cl)Cl)cc1	90 to 91
CC(Cl)(Cl)C(NC(=O)c1ccc(Cl)cc1)Nc1c(Nc2cccnc2)c(=O)c1=O (stereo unspecified)	201 to 202
CC12CCC(O)CC1=CCC1C2CCC2(C)C1CCC2n1ccnc1 (stereo unspecified)	255 to 258
OC(CCCN1CC=C(c2ncco2)CC1)c1ccc(F)cc1 (stereo unspecified)	100 to 103
COc1cc(C)c(C(=O)c2c(OC)ccc(C(F)(F)F)c2C)c(OC)c1OC	95 to 96
CN1C(=O)CN(C(=O)N2CC(=O)N(C)c3ccc(Cl)cc3C2c2ccccc2)C(c2ccccc2)c2cc(Cl)ccc21 (stereo unspecified)	263 to 266
O=C(NC1Cc2ccc([N+](=O)[O-])cc2C1)c1ccc(F)cc1 (stereo unspecified)	167
CCCC(C=NNC(C)=O)c1ccc(Cl)cc1Cl (stereo unspecified)	145 to 147
c1cncc(-c2nc3ncccc3[nH]2)c1	133 to 135
O=C1C=CC(O)(c2nc3ccccc3s2)C(Sc2ccccc2)C1 (stereo unspecified)	66
COc1cccc(SCCC(=O)O)c1	39 to 42
O=C(O)CCc1ccc(C(=O)c2c(-c3ccc(O)cc3)sc3cc(O)ccc23)cc1	244 to 248
Nc1ccc2ccc(Cl)cc2n1	175
COc1ccc(C(=O)Nc2c(Cl)cncc2Cl)cc1OC1COCC1OCSC (stereo unspecified)	195 to 198
Cc1ccc(S(=O)(=O)Cl)c2c1CCN(C(=O)C(F)(F)F)C2	152 to 153
O=S(c1ccc(C=Cc2nc(CCl)cs2)cc1)C(F)(F)F (stereo unspecified)	98 to 99
CSCn1c(C(F)(F)F)nc2c(Br)cc(C(F)(F)F)cc21	56 to 60
C=C(c1cc(Cl)ccc1N1CCCCC1)C(C(N)=O)c1ccc(C(=O)OCC)cc1 (stereo unspecified)	142 to 145
CCOc1cc(C(=CC#N)c2ccc(OC)c(-n3cccc3)c2)ccc1OC	109 to 111
CC#CCC/C=C/CC(=O)O	43 to 45
Cn1c(C(F)(F)F)cc(=O)n(-c2cc(OCC=C(Cl)Cl)c(Cl)cc2F)c1=O	126 to 127
C#CCN(C(=O)CN)C(=O)OC	77 to 80
CC1(C)OC(=O)C(Oc2ccc(Cl)c(Cl)c2)=C1c1ccc(S(C)(=O)=O)cc1	144 to 145
COC(=O)c1ccoc1-c1cccc([N+](=O)[O-])c1	93 to 94
